We go through four molecules from article PMC12136991 (ACS chemical neuroscience, 2025).

In brackets after ≈: the same amount, converted by molar mass. Several values for one entry are separate records, joined by “and”; a condition that tells them apart may be missing. Identical values can stand only once. Entries after “also recorded” stand apart in the source; their conditions may differ.

Data set [1] has as its target T1, mouse mu opioid receptor (mMOR-CHO) (Mus musculus, UniProt P42866). As to the kind of experiment: [35S]GTPγS functional assay, mMOR-CHO membranes. It is filed as biochemical. On the technique in general: GTPγS resists hydrolysis and so accumulates on activated G proteins.
Another data set in a line: Kinetic solubility assay. Format: physicochemical. The following applies: kinetic from dmso stock.
A short description of data set [2]: Multi-point microsome stability assay, human. It is filed as in vitro ADME. The following applies: both, human microsomal fractions, pH 7.4.
A short description of data set [3]: Multi-point microsome stability assay, mouse. It is filed as in vitro ADME. The following applies: male, CD-1, mouse, mouse microsomal fractions, pH 7.4.
A short description of data set [4]: Multi-point microsome stability assay, rat. It is filed as in vitro ADME. Conditions: male, Sprague Dawley, rat microsomal fractions, pH 7.4.
Data set [5] in a line: Multi-point cytosol stability assay, human. It is filed as in vitro ADME. Conditions: human cytosol fractions, pH 7.4.
Data set [6] is described as follows: Multi-point cytosol stability assay, mouse. It is filed as in vitro ADME. Conditions: mouse cytosol fractions, pH 7.4.
Data set [7] in a line: Multi-point cytosol stability assay, rat. Format: in vitro ADME. The following applies: rat cytosol fractions, pH 7.4.
The subject of data set [8] is mice. The following applies: administered before IP 0.56% lactic acid; previously published; cited from earlier work.
For data set [9], the target named is T2, human δ-opioid receptor (OPRD1) (Homo sapiens, UniProt P41143). As to the kind of experiment: Forskolin-induced cAMP accumulation assay, DOR antagonist mode. The following applies: for DOR Antagonist %Imax ± SEM: versus EC50 of SNC80, normalized to naltrexone.
Data set [10] concerns the target T3, human κ-opioid receptor (OPRK1) (Homo sapiens, UniProt P41145). Put plainly: Forskolin-induced cAMP accumulation assay, KOR antagonist mode.
The target in data set [11] is human μ-opioid receptor (OPRM1) (Homo sapiens, UniProt P35372). Put plainly: cell-based. Conditions: for Emax: OPRM1, read-out: MOR Agonist %Emax ± SEM.
Data set [12] has as its target T1, mouse mu opioid receptor (mMOR-CHO). As to the kind of experiment: Competition radioligand binding assay, [3H]naloxone, mMOR-CHO membranes.
In data set [13] the target is T4, KOR (mKOR-CHO) (Mus musculus, UniProt P33534). Put plainly: Competition radioligand binding assay, mKOR-CHO membranes.
The target of data set [14] is T4, KOR (mKOR-CHO). As to the kind of experiment: [35S]GTPγS functional assay, mKOR-CHO membranes. Format: biochemical. Conditions: KOR-mediated [35S]GTPγS binding, up to 30 μM.
For data set [15], the target named is T5, DOR (hDOR-CHO) (Homo sapiens, UniProt P41143). As to the kind of experiment: Competition radioligand binding assay, hDOR-CHO membranes. Conditions: DOR Receptor binding Ki, CHO cell membranes expressing cloned DOR.
Data set [16] addresses T5, DOR (hDOR-CHO). Put plainly: [35S]GTPγS functional assay, hDOR-CHO membranes. It is filed as biochemical.
For data set [17], the system named is mice. Put plainly: Assay of pain-depressed locomotion in mice. Format: in vivo, mouse.
The target in data set [18] is T2, human δ-opioid receptor (OPRD1). As to the kind of experiment: Forskolin-induced cAMP accumulation assay, DOR agonist mode. In general terms: Cyclic AMP is a second messenger, typically raised through Gs and lowered through Gi signalling.
Data set [19] addresses T3, human κ-opioid receptor (OPRK1). As to the kind of experiment: Forskolin-induced cAMP accumulation assay, KOR agonist mode.
A short description of data set [20]: Parallel artificial membrane permeability assay. The following applies: stirring double-sink PAMPA. It is filed as in vitro ADME. For orientation: The PAMPA barrier holds no transporters, so it reflects passive diffusion.
Where [21] appears, read: SC 30 min before 15 min session, significant increase, 12 mice per dose.

Turning to `C=C[C@H]1[C@H]2CCC[C@]1(c1cccc(O)c1)CCN2CCc1ccccc1` [DC-1–76.2, 3-((1R,5S,9R)-2-phenethyl-9-vinyl-2-azabicyclo[3.3.1]nonan-5-yl)phenol, reference compound], the “GTPγS % Emax of (DAMGO)” value in data set [1] (MOR, % of maximal DAMGO stimulation) worked out at 29.09 ± 0.78%. The solubility (kinetic) (in general, the concentration staying in solution when a stock, usually in DMSO, is diluted into the medium) in “Kinetic solubility assay” stood at 34 µg/mL (≈ 97.8 µM). In addition, the half-life – broadly, the time in which the quantity being followed falls by half – at 1 μM in data set [2] is 12 min; in [3], 4.7 min; in [4], 6.9 min; in [5], 80.7 min; in [6], 71.9 min; in data set [7], greater than 120 min. Besides, in the data set on mice [8], the “effect on IP acid-induced depression of Crosses and Movement” value is given as “failed to alleviate IP acid-induced depression of Crosses but did alleviate IP acid-induced depression of Movement”. Besides, the “DOR Antagonist %Imax ± SEM” value in data set [9] came to 119.1 ± 15.5%. The “KOR Antagonist %Imax ± SEM” value in data set [10] (versus EC90 of U50488H, normalized to nor-BNI) stood at 97.1 ± 9.2%.

For the molecule `C=C[C@H]1[C@H]2CCC[C@]1(c1cccc(C(N)=O)c1)CCN2CCc1ccccc1` [compound 5, 3-((1R,5S,9R)-2-Phenethyl-9-vinyl-2-azabicyclo[3.3.1]nonan-5-yl)benzamide], the EC50 (as a rule, the concentration needed to bring the measured effect to its halfway point) is 5.28 nM in [11]; 23.3 ± 6.45 nM in data set [1]; 1460 ± 594 nM on DOR (hDOR-CHO) [16]; 6.01 ± 4.97 nM in data set [18]; greater than 10000 nM in data set [19]. The Emax (commonly the greatest response seen or fitted, relative to the assay's reference) is 75.1% in data set [11]; 15.4 ± 1.8% in [1] (read-out: GTPγS % Emax of (DAMGO), MOR, % of maximal DAMGO stimulation); -6.98 ± 1.21% at DOR (hDOR-CHO) [16] (read-out: DOR GTPγS % Emax of (DAMGO)); 25.2% in [18] (read-out: DOR Agonist %Emax ± SEM). Also, the Ki – broadly, a dissociation constant, usually derived from enzyme kinetics or from competition with a known ligand – in data set [12] is 1.24 ± 0.17 nM; on KOR (mKOR-CHO) [13], 48.7 ± 7.06 nM; at DOR (hDOR-CHO) [15] it was 237 nM. Further, the “KOR GTPγS % Emax of (DAMGO)” value at KOR (mKOR-CHO) [14] was “did not stimulate; also recorded: No Stim”. Further, the solubility (kinetic) in the data set “Kinetic solubility assay” was 5.1 µg/mL (≈ 13.6 µM). Besides, the half-life at 1 μM was 40.4 min in data set [2]; 16.7 min in data set [3]; 3.2 min in data set [4]; greater than 120 min in [5]; greater than 120 min in data set [6]; greater than 120 min in data set [7]. Further, the “Crosses, drug administered alone: dose different from Vehicle” value in the data set on mice [17] (setting [21]) came out at 18 mg/kg. In addition, the “Movement, drug administered alone: doses different from Vehicle” value in the data set with mice [17] (setting [21]) lay within 10 to 18 mg/kg. In addition, the “antinociceptive attenuation of IP acid-induced depression of Crosses: dose different from Vehicle+IP acid” value in the data set on mice [17] (SC pretreatment to IP 0.56% lactic acid) was 18 mg/kg. For the same molecule, the values for the IC50 in [9] and in data set [10] were 498 ± 208 nM and greater than 10000 nM, respectively. Further, in data set [9], the “DOR Antagonist %Imax ± SEM” value is 117.6 ± 8.0%.

As to `C=C[C@H]1[C@H]2CCC[C@]1(c1cccc(O)c1)CCN2CCc1ccc([N+](=O)[O-])cc1` [compound 17, 3-((1R,5S,9R)-2-(4-Nitrophenethyl)-9-vinyl-2-azabicyclo[3.3.1]nonan-5-yl)phenol], the EC50 in data set [11] and in [19] was greater than 10000 nM in each case. The same molecule yielded a Ki in data set [12] of 0.41 ± 0.05 nM. Further, the IC50 – broadly, the concentration that gives 50% inhibition – came to 16.2 ± 2.52 nM in data set [1] and 105 ± 21.3 nM in data set [9]. The “GTPγS % Imax of (DAMGO)” value in [1] (MOR, maximal percent inhibition) is 98.42% and 98.42 ± 4.24%. In “Kinetic solubility assay”, this molecule displayed a kinetic solubility of 10.6 µg/mL (≈ 27 µM). Moreover, the half-life at 1 μM in [2] is 16.8 min; in [3], 9.31 min; in data set [4] it was 12.9 min; in [5] it was greater than 120 min; in data set [6], 105 min; in data set [7] it was greater than 120 min. Also, the “DOR Antagonist %Imax ± SEM” value in data set [9] came out at 137.2 ± 9.7%.

For the molecule `C=C[C@H]1[C@H]2CCC[C@]1(c1cccc(O)c1)CCN2CCc1cccc([N+](=O)[O-])c1` [compound 18, 3-((1R,5S,9R)-2-(3-Nitrophenethyl)-9-vinyl-2-azabicyclo[3.3.1]nonan-5-yl)phenol], the EC50 in data set [11] was 2.05 nM; in data set [18], greater than 10000 nM; in [19], greater than 10000 nM. Moreover, the results for the Emax in data set [11] and in [19] (read-out: KOR Agonist %Emax ± SEM) were 85.8% and 0%, respectively. Also, in the data set “Kinetic solubility assay”, the solubility (kinetic) was greater than 39 µg/mL. Besides, the half-life at 1 μM was 10.6 min in data set [2]; 3.54 min in data set [3]; 1.98 min in data set [4]; greater than 120 min in [5]; greater than 120 min in data set [6]; greater than 120 min in [7]. Moreover, the “PAMPA permeability Papp” value in data set [20] is >1000 10E-6 cm/s. In data set [9], this molecule showed an IC50 of 52.5 ± 8.43 nM. Besides, the “DOR Antagonist %Imax ± SEM” value in data set [9] is 149.9 ± 13.2%.
